Reference: patent publication US8809333B2, “Imidazole, pyrazole, and triazole derivatives useful as antibacterial agents” (Pfizer Inc., priority 2011, dated 2014)
Values after ≈ are worked out from the molar mass of the structure shown. Like-named read-outs stand apart in the source and are kept apart here.

Columns and labels:
[1] = tested on: Klebsiella pneumoniae: Ciprofloxacin-resistant isolate, expresses ESBL, clinical isolate (KP-3700); assay: MIC determination (CLSI), KP-3700; assay type: cell-based; conditions: overnight incubation, lower of duplicate values
How it was run: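 Broth dilution MIC per CLSI M7-A8 against the ciprofloxacin-resistant, ESBL-expressing clinical isolate, 2-fold concentration steps, overnight incubation, visual read of lowest growth-inhibiting concentration. Tested in duplicate; lower value reported when within 2-fold; control organisms and reference compounds required within range.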

[2] = tested on: Escherichia coli EC-1: VOGEL, mouse virulent; assay: MIC determination (CLSI), EC-1; assay type: cell-based; conditions: Escherichia coli, read-out: EC-1 (MIC)
How it was run: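 Broth dilution MIC per CLSI M7-A8, with 2-fold compound dilutions incubated overnight with a standard inoculum. MIC is the lowest concentration visibly inhibiting growth versus drug-free control; tested in duplicate, reporting the lower value when within 2-fold, with QC organisms and reference compounds required in range.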

[3] = biological target: T1, Pseudomonas aeruginosa LpxC enzyme (Pseudomonas aeruginosa, UniProt P47205); assay: IC50 assay, LpxC enzyme from P. aeruginosa (BioTrove RapidFire mass spectrometry); assay type: biochemical
T1 construct: made in house; host or cells: E. coli
T1 sequence (P47205 1-303): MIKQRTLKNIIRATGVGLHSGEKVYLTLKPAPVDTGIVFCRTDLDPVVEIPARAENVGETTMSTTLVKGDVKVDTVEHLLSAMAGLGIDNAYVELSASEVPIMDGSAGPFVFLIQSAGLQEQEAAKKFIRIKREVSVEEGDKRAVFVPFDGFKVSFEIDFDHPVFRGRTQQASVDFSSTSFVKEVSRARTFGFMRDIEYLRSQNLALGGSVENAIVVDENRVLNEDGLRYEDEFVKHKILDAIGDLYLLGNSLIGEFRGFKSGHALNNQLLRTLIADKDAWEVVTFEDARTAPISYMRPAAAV
How it was run: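 P. aeruginosa LpxC reaction run 1 hour, stopped with 1 N HCl, and substrate-to-product conversion quantified by RapidFire mass spectrometry. IC50 calculated from percent conversion using a no-enzyme control.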

[4] = tested on: Pseudomonas aeruginosa UI-18: Wild-type (PA-7); assay: MIC determination (CLSI), PA-7; assay type: cell-based; conditions: read-out: PA-7 (MIC)
How it was run: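 Broth dilution MIC per CLSI M7-A8, using 2-fold compound dilutions incubated overnight; MIC is the lowest concentration with no visible growth versus the drug-free control. Run in duplicate, lower value reported when within 2-fold. Control organisms and reference compounds were included for QC.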

[5] = tested on: Acinetobacter baumannii/haemolyticus: Multidrug-resistant clinical isolate (AB-3167); assay: MIC determination (CLSI), AB-3167; assay type: cell-based; conditions: read-out: AB-3167 (MIC)
How it was run: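 Broth dilution MIC per CLSI M7-A8, 2-fold concentration steps, overnight incubation, visual read of lowest concentration inhibiting growth versus drug-free control. Tested in duplicate; lower value reported if within 2-fold, otherwise repeated; QC organisms and reference drugs required within range.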

[6] = P. aeruginosa LpxC enzyme 0.1 nM, 25° C., 1 hour, pH 8.0, read-out: PA: IC50
[7] = Pseudomonas aeruginosa UI-18 wild-type, overnight incubation, lower of duplicate values
[8] = Acinetobacter baumannii/haemolyticus multidrug-resistant clinical isolate, overnight incubation, lower of duplicate values

SMILES | KP-3700 (MIC) [1] [µg/mL] | MIC [2] [µg/mL] | IC50 [3, 6] [nM] | MIC [4, 7] [µg/mL] | MIC [5, 8] [µg/mL] | IC50 [3] [nM] | MIC ([4]; Pseudomonas aeruginosa) [µg/mL] | MIC ([5]; Acinetobacter baumannii) [µg/mL]
CC(CCn1cc(-c2ccc(-c3cnco3)cc2)cn1)(C(=O)NO)S(C)(=O)=O (stereo not drawn) [Example 72, N-hydroxy-2-methyl-2-(methylsulfonyl)-4-{4-[4-(1,3-oxazol-5-yl)phenyl]-1H-pyrazol-1-yl}butanamide] | 16 | 4 (≈ 9.89 µM) | 0.373 | 2 (≈ 4.95 µM) | > 64 |  |  | 
Cc1ccc(-c2cnn(CCC(C)(C(=O)NO)S(C)(=O)=O)c2)cc1 (stereo not drawn) [Example 41, N-hydroxy-2-methyl-4-[4-(4-methylphenyl)-1H-pyrazol-1-yl]-2-(methylsulfonyl)butanamide] | 64 | 8 (≈ 22.8 µM) | 1.26 | 2 (≈ 5.69 µM) | > 64 |  |  | 
C[C@@](CCn1cc(-c2cnccn2)cn1)(C(=O)NO)S(C)(=O)=O [Example 8, (2R)—N-hydroxy-2-methyl-2-(methylsulfonyl)-4-[4-(pyrazin-2-yl)-1H-pyrazol-1-yl]butanamide] | >64.0 | > 64 | > 100 | > 64 | > 64 |  |  | 
Cc1cccc(-c2cnn(CCC(C)(C(=O)NO)S(C)(=O)=O)c2)c1 (stereo not drawn) [Example 42, N-hydroxy-2-methyl-4-[4-(3-methylphenyl)-1H-pyrazol-1-yl]-2-(methylsulfonyl)butanamide] | >64.0 | 64 (≈ 182 µM) | 6.2 | 4 (≈ 11.4 µM) | > 64 |  |  | 
CC(CCn1cc(-c2ccc(Cl)cc2)nn1)(C(=O)NO)S(C)(=O)=O (stereo not drawn) [Example 26, 4-[4-(4-chlorophenyl)-1H-1,2,3-triazol-1-yl]-N-hydroxy-2-methyl-2-(methylsulfonyl)butanamide] | 32 | 32 (≈ 85.8 µM) | 2.87 | 4 (≈ 10.7 µM) | > 64 |  |  | 
Cc1cc(-c2ccc(-c3cnn(CCC(C)(C(=O)NO)S(C)(=O)=O)c3)cc2)[nH]n1 (stereo not drawn) [Example 84, N-hydroxy-2-methyl-4-{4-[4-(3-methyl-1H-pyrazol-5-yl)phenyl]-1H-pyrazol-1-yl}-2-(methylsulfonyl)butanamide] | >64.0 | 16 (≈ 38.3 µM) | 6.44 | 64 (≈ 153 µM) | > 64 |  |  | 
Cc1nccc(-c2ccc(-c3cnn(CCC(C)(C(=O)NO)S(C)(=O)=O)c3)cc2)n1 (stereo not drawn) [Example 92, N-hydroxy-2-methyl-4-{4-[4-(2-methylpyrimidin-4-yl)phenyl]-1H-pyrazol-1-yl}-2-(methylsulfonyl)butanamide] | >64.0 | 32 (≈ 74.5 µM) | 5.49 | 32 (≈ 74.5 µM) | > 64 |  |  | 
C[C@@](CCn1cc(-c2ccc(Cl)c(Cl)c2)nn1)(C(=O)NO)S(C)(=O)=O [Example 21, (2R)-4-[4-(3,4-dichlorophenyl)-1H-1,2,3-triazol-1-yl]-N-hydroxy-2-methyl-2-(methylsulfonyl)butanamide] | 32 | 16 (≈ 39.3 µM) |  |  |  | 1.67 | 2 (≈ 4.91 µM) | > 64
Cc1ccc(C)c(OCc2cn(CCC(C)(C(=O)NO)S(C)(=O)=O)nn2)c1 (stereo not drawn) [Example 39, 4-{4-[(2,5-dimethylphenoxy)methyl]-1H-1,2,3-triazol-1-yl}-N-hydroxy-2-methyl-2-(methylsulfonyl)butanamide] | >64.0 | > 64 | 51.3 | > 64 | > 64 |  |  | 
C[C@@](CCn1cc(-c2nc3ccccc3o2)cn1)(C(=O)NO)S(C)(=O)=O [Example 10, (2R)-4-[4-(1,3-benzoxazol-2-yl)-1H-pyrazol-1-yl]-N-hydroxy-2-methyl-2-(methylsulfonyl)butanamide] | >64.0 | 32 (≈ 84.6 µM) | 13.8 | 32 (≈ 84.6 µM) | 32 (≈ 84.6 µM) |  |  | 
C[C@@](CCn1cc(-c2ccc(F)c(F)c2)nn1)(C(=O)NO)S(C)(=O)=O [Example 20, (2R)-4-[4-(3,4-difluorophenyl)-1H-1,2,3-triazol-1-yl]-N-hydroxy-2-methyl-2-(methylsulfonyl)butanamide] | >64.0 | 32 (≈ 85.5 µM) |  | 4 (≈ 10.7 µM) | > 64 | 1.87 |  | 
CC(CCn1cc(-c2ccccc2Br)nn1)(C(=O)NO)S(C)(=O)=O (stereo not drawn) [Example 38, 4-[4-(2-bromophenyl)-1H-1,2,3-triazol-1-yl]-N-hydroxy-2-methyl-2-(methylsulfonyl)butanamide] | >64.0 | 16 (≈ 38.3 µM) | 18.9 | 32 (≈ 76.7 µM) | > 64 |  |  | 
CC(C)COc1ccc(-c2cnn(CCC(C)(C(=O)NO)S(C)(=O)=O)c2)cn1 (stereo not drawn) [Example 81, N-hydroxy-2-methyl-4-{4-[6-(2-methylpropoxy)pyridin-3-yl]-1H-pyrazol-1-yl}-2-(methylsulfonyl)butanamide] | 32 | 8 (≈ 19.5 µM) | 2.07 | 32 (≈ 78 µM) | > 64 |  |  | 
CC(CCn1cc(-c2ccc(F)cc2F)cn1)(C(=O)NO)S(C)(=O)=O (stereo not drawn) [Example 55, 4-[4-(2,4-difluorophenyl)-1H-pyrazol-1-yl]-N-hydroxy-2-methyl-2-(methylsulfonyl)butanamide] | 64 | 8 (≈ 21.4 µM) | 2.07 | 2 (≈ 5.36 µM) | > 64 |  |  | 
Cc1nn(CC[C@](C)(C(=O)NO)S(C)(=O)=O)cc1-c1ccccc1 [Example 4, (2R)—N-hydroxy-2-methyl-4-(3-methyl-4-phenyl-1H-pyrazol-1-yl)-2-(methylsulfonyl)butanamide] | 32 | 8 (≈ 22.8 µM) | 14.6 | 8 (≈ 22.8 µM) | > 64 |  |  | 
CC(CCn1cc(-c2ccc(-c3cc[nH]n3)cc2)cn1)(C(=O)NO)S(C)(=O)=O (stereo not drawn) [Example 70, N-hydroxy-2-methyl-2-(methylsulfonyl)-4-{4-[4-(1H-pyrazol-3-yl)phenyl]-1H-pyrazol-1-yl}butanamide] | >64.0 | 64 (≈ 159 µM) | 4.11 | 32 (≈ 79.3 µM) | > 64 |  |  | 
CC(CCn1cc(-c2ccccc2C#N)cn1)(C(=O)NO)S(C)(=O)=O (stereo not drawn) [Example 46, 4-[4-(2-cyanophenyl)-1H-pyrazol-1-yl]-N-hydroxy-2-methyl-2-(methylsulfonyl)butanamide] | >64.0 | 4 (≈ 11 µM) | 72.5 | 32 (≈ 88.3 µM) | > 64 |  |  | 
CC(CCn1cc(-c2ccc(-c3csnn3)cc2)cn1)(C(=O)NO)S(C)(=O)=O (stereo not drawn) [Example 90, N-hydroxy-2-methyl-2-(methylsulfonyl)-4-{4-[4-(1,2,3-thiadiazol-4-yl)phenyl]-1H-pyrazol-1-yl}butanamide] | 64 | 16 (≈ 38 µM) | 1.23 | 4 (≈ 9.49 µM) | > 64 |  |  | 
